Assay results: patent US20130065959A1, “SANITIZING MEAT WITH PERACID AND 2-HYDROXY ORGANIC ACID COMPOSITIONS” (Fresh Express Incorporated, priority 2009, published 2013)

Assays:
[1] = cited from earlier work
[2] = Depletion of sanitizer wash water by diced Romaine, commercial scale test (Example 5); type: physicochemical; conditions: 38 to 40 F; for PA (ppm) / Peroxide (ppm): 600 gallons, LA 0 ppm
Protocol: (§1) Example 5. These experiments evaluated the consumption or depletion of peroxyacetic acid when used to wash produce.
(§2) Treatments: chlorinated water, peroxyacetic acid wash water, and FE sanitizer wash water
(§3) Temperature: 38 to 40° F.
(§4) Produce: 1.5″×2″ diced Romaine lettuce
A. Determination of the amount of Romaine Lettuce that could deplete 600 gallons of peroxyacetic acid wash water. • 1. Perform full sanitization on the Pilot Line System. • 2. Fill the 2nd flume tank, 2nd reservoir, and 2nd filtering tank with tap water. • 3. Recycle the water through the system until the water in the system is being cooled down to 40° F. • 4. Calibrate the Prominent System and use the Prominent System to monitor the concentration of PAA in the wash water. • 5. Add the PAA to the 2nd filtering tank until the target processing limit is reached. • 6. Dice the Romaine Lettuce via the translicer. • 7. Collect the 2″×2″ diced Romaine in totes. • 8. Record the weight of each tote prior to transferring it to the 2nd flume. • 9. Collect three untreated bags of Romaine Lettuce from each bin (1 top, 1 middle, and 1 bottom). • 10. Collect three treated bags of Romaine Lettuce at the end of F2 (1 beginning, 1 middle, and 1 end of the bin). • 11. Place white totes at the bottom of the locations with water spill. Return the spilt water back into the flume tank as needed. • 12. Place white totes at the bottom outlets of the centrifuge to collect liquid that would be spin off from the leaves. Return the collected water back into the flume tank as needed. • 13. Repeat Steps ‘e’ to ‘k’ for the rest of the bins till the FE concentrations fall below the lowest processing limits. • 14. Enumerate the microbial population (APC and Yeast and mold) on the collected samples. B. Determination of the amount of Romaine Lettuce that could deplete 600 gallons of FE wash water • 1. Perform full sanitization on the Pilot Line System. • 2. Fill the 1st flume tank, 2nd flume tank, 1st reservoir, 2nd reservoir, 1^stfiltering tank, and 2nd filtering tank with tap water. • 3. Recycle the water through the system until the water in the system is being cooled down to 40° F. • 4. Switch on the by-passes for the 1st and 2nd flume tank systems so that water would not be going through the filtering systems but only recycling from the flume tank to its associate reservoir continuously. • 5. Add the chemical ingredients to both tank until the target processing limit is reached. • 6. Verify the concentration of FE by the probe of the Prominent Monitoring System at the 1st flume tank (F1), 1st Reservoir (R1), 2nd Flume tank (F2), and the 2nd Reservoir (R2). • 7. Collect water samples from F1 and F2. • 8. Assemble the Romaine Lettuce Bins next to the dumpster. • 9. Transfer whole Romaine Lettuce leaves from the bin to the conveyor. • 10. Ensure that the lid above the F1 is closed. Turn the “ON/OFF” switch of the translicer to “ON”. • 11. Turn the conveyor for transferring leaves into the translicer to “ON”. • 12. Ensure that the chopped Romaine are delivered evenly into the flume tank without aggregation and clumping. • 13. Collect three untreated bags of Romaine Lettuce from each bin (1 top, 1 middle, and 1 bottom). • 14. Collect three treated bags of Romaine Lettuce at the end of F2 (1 beginning, 1 middle, and 1 end of the bin). • 15. Verify the pH, temperature, and the concentration of FE at the 1st flume tank (F1), 1st Reservoir (R1), 2nd Flume tank (F2), and the 2nd Reservoir (R2) before and after processing a bin. • 16. Place white totes at the bottom of the locations with water spill. Return the spilt water back into the flume tank as needed. • 17. Place white totes at the bottom outlets of the centrifuge to collect liquid that would be spin off from the leaves. Return the collected water back into the flume tank as needed. • 18. Repeat Steps ‘e’ to ‘o’ for the rest of the bins till the FE concentrations fall below the lowest processing limits. • 19. […]

[3] = 40° C.; cited from earlier work
[4] = system: indigenous microorganisms; assay: Reduction of indigenous microorganisms on Romaine, Aerobic Plate Counts, commercial scale test (Example 5); type: cell-based; conditions: 73-84 ppm peroxyacetic acid, no lactic acid
Protocol: as §1, §2, §3, §4
A. Determination of the amount of Romaine Lettuce that could deplete 600 gallons of peroxyacetic acid wash water. • 1. Perform full sanitization on the Pilot Line System. • 2. Fill the 2nd flume tank, 2nd reservoir, and 2nd filtering tank with tap water. • 3. Recycle the water through the system until the water in the system is being cooled down to 40° F. • 4. Calibrate the Prominent System and use the Prominent System to monitor the concentration of PAA in the wash water. • 5. Add the PAA to the 2nd filtering tank until the target processing limit is reached. • 6. Dice the Romaine Lettuce via the translicer. • 7. Collect the 2″×2″ diced Romaine in totes. • 8. Record the weight of each tote prior to transferring it to the 2nd flume. • 9. Collect three untreated bags of Romaine Lettuce from each bin (1 top, 1 middle, and 1 bottom). • 10. Collect three treated bags of Romaine Lettuce at the end of F2 (1 beginning, 1 middle, and 1 end of the bin). • 11. Place white totes at the bottom of the locations with water spill. Return the spilt water back into the flume tank as needed. • 12. […]

[5] = 600 gallons wash water, whole run
[6] = cumulative diced Romaine added 0.0 lb
[7] = cumulative diced Romaine added 55.2 lb
[8] = cumulative diced Romaine added 114.9 lb
[9] = cumulative diced Romaine added 157.2 lb
[10] = cumulative diced Romaine added 207.7 lb
[11] = cumulative diced Romaine added 272.9 lb
[12] = cumulative diced Romaine added 325.8 lb
[13] = cumulative diced Romaine added 371.3 lb
[14] = cumulative diced Romaine added 424.7 lb
[15] = cumulative diced Romaine added 502.6 lb
[16] = cumulative diced Romaine added 565.0 lb
[17] = cumulative diced Romaine added 629.0 lb
[18] = cumulative diced Romaine added 697.1 lb
[19] = cumulative diced Romaine added 762.7 lb
[20] = cumulative diced Romaine added 826.6 lb
[21] = cumulative diced Romaine added 896.2 lb
[22] = cumulative diced Romaine added 949.9 lb

Structure (SMILES): CC(=O)OO [Peroxyacetic acid, peroxyacetic acid]
- Oxidation Capacity [1]: 1.81 eV
- Amount of PA consumed [2, 5]: 11.7 ppm
- Pounds of PA consumed [2, 5]: 0.01208 lb
- Depletion of PA ([2]; 600 gallons wash water, no lactic acid): 0.000013 lb of PA per lb of Romaine
- PA (ppm) [2, 6]: 84.8 ppm
- Peroxide (ppm) [2, 6]: 7.5 ppm
- PA (ppm) [2, 7]: 83.3 ppm
- Peroxide (ppm) [2, 7]: 7.4 ppm
- PA (ppm) [2, 8]: 82.7 ppm
- Peroxide (ppm) [2, 8]: 7.4 ppm
- PA (ppm) [2, 9]: 82.4 ppm
- Peroxide (ppm) [2, 9]: 7.4 ppm
- PA (ppm) [2, 10]: 82.0 ppm
- Peroxide (ppm) [2, 10]: 7.4 ppm
- PA (ppm) [2, 11]: 81.4 ppm
- Peroxide (ppm) [2, 11]: 7.3 ppm
- PA (ppm) [2, 12]: 81.0 ppm
- Peroxide (ppm) [2, 12]: 7.3 ppm
- PA (ppm) [2, 13]: 80.5 ppm
- Peroxide (ppm) [2, 13]: 7.1 ppm
- PA (ppm) [2, 14]: 79.6 ppm
- Peroxide (ppm) [2, 14]: 6.9 ppm
- PA (ppm) [2, 15]: 78.7 ppm
- Peroxide (ppm) [2, 15]: 6.9 ppm
- PA (ppm) [2, 16]: 78.4 ppm
- Peroxide (ppm) [2, 16]: 6.9 ppm
- PA (ppm) [2, 17]: 77.7 ppm
- Peroxide (ppm) [2, 17]: 6.4 ppm
- PA (ppm) [2, 18]: 76.1 ppm
- Peroxide (ppm) [2, 18]: 6.4 ppm
- PA (ppm) [2, 19]: 75.4 ppm
- Peroxide (ppm) [2, 19]: 6.1 ppm
- PA (ppm) [2, 20]: 74.7 ppm
- Peroxide (ppm) [2, 20]: 6.0 ppm
- PA (ppm) [2, 21]: 73.7 ppm
- Peroxide (ppm) [2, 21]: 6.0 ppm
- PA (ppm) [2, 22]: 73.1 ppm
- Peroxide (ppm) [2, 22]: 6.0 ppm
- apparent equilibrium constant, Kap [3]: about 2.21
- Log Reduction, Aerobic Plate Counts [4]: 0.7 Log cfu/g
- Aerobic Plate Counts after wash ([4]; untreated 3.4): 2.7 Log cfu/g
